Assay results: ChEMBL document CHEMBL1201862, “PubChem BioAssay data set” (2004)
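A five-concentration, 48-hour dose response in 96-well plates underlies each endpoint, interpolated linearly between surrounding concentrations. Abbreviation: GI50, concentration required for 50% inhibition of growth.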 The source made the active and inactive calls. Cut-off read from the data, not from the text of the source: active = GI50 up to about 1.1 µM and inactive = higher.

Experiments:
Assay in all cases: NCI anticancer screen, dose series, 48 h
SNB-19 = tested on: SNB-19
KM12 = tested on: KM12
HCC 2998 = tested on: HCC 2998
MDA-MB-435 = tested on: MDA-MB-435
HOP-92 = tested on: HOP-92
EKVX = tested on: EKVX
NCI-H226 = tested on: NCI-H226
A498 = tested on: A498
SK-MEL-2 = tested on: SK-MEL-2
HCT-15 = tested on: HCT-15
OVCAR-4 = tested on: OVCAR-4
SF-295 = tested on: SF-295
NCI-H460 = tested on: NCI-H460
MDA-MB-231 = tested on: MDA-MB-231
HOP-62 = tested on: HOP-62
OVCAR-3 = tested on: OVCAR-3
DU-145 = tested on: DU-145
OVCAR-5 = tested on: OVCAR-5
HCT-116 = tested on: HCT-116
UACC-62 = tested on: UACC-62
MCF7 = tested on: MCF7
U-251 = tested on: U-251
SN12C = tested on: SN12C
PC-3 = tested on: PC-3
Malme-3M = tested on: Malme-3M
M14 = tested on: M14
MDA-N = tested on: MDA-N
NCI/ADR-RES = tested on: NCI/ADR-RES
CAKI-1 = tested on: CAKI-1
SK-MEL-5 = tested on: SK-MEL-5
SK-MEL-28 = tested on: SK-MEL-28
NCI-H522 = tested on: NCI-H522
ACHN = tested on: ACHN
UACC-257 = tested on: UACC-257
SK-OV-3 = tested on: SK-OV-3
NCI-H23 = tested on: NCI-H23
K562 = tested on: K562
SF-268 = tested on: SF-268
COLO 205 = tested on: COLO 205
BT-549 = tested on: BT-549
786-0 = tested on: 786-0
A549 = tested on: A549
SNB-75 = tested on: SNB-75
RPMI-8226 = tested on: RPMI-8226
TK-10 = tested on: TK-10
UO-31 = tested on: UO-31
T47D = tested on: T47D
MOLT-4 = tested on: MOLT-4
LOX IMVI = tested on: LOX IMVI
HT-29 = tested on: HT-29
Hs-578T = tested on: Hs-578T
IGROV-1 = tested on: IGROV-1
HL-60 = tested on: HL-60
SF-539 = tested on: SF-539
OVCAR-8 = tested on: OVCAR-8
CCRF-CEM = tested on: CCRF-CEM
SW-620 = tested on: SW-620
SR = tested on: SR

COC(=O)c1cc(C(=O)OC)cc(-c2ccc3c(c2)-c2nc4c(c(-c5ccc(OC)cc5)c2CC3)CCc2ccc(-c3cc(C(=O)OC)cc(C(=O)OC)c3)cc2-4)c1
GI50 (SNB-19): > 100 µM (inactive)
GI50 (KM12): > 100 µM (inactive)
GI50 (HCC 2998): > 100 µM (inactive)
GI50 (MDA-MB-435): > 100 µM (inactive)
GI50 (HOP-92): > 100 µM (inactive)
GI50 (EKVX): 16.9 µM (inactive)
GI50 (NCI-H226): > 100 µM (inactive)
GI50 (A498): > 100 µM (inactive)
GI50 (SK-MEL-2): > 100 µM (inactive)
GI50 (HCT-15): > 100 µM
GI50 (OVCAR-4): > 100 µM (inactive)
GI50 (SF-295): > 100 µM (inactive)
GI50 (NCI-H460): > 100 µM (inactive)
GI50 (MDA-MB-231): > 100 µM (inactive)
GI50 (HOP-62): > 100 µM (inactive)
GI50 (OVCAR-3): > 100 µM (inactive)
GI50 (DU-145): > 100 µM (inactive)
GI50 (OVCAR-5): 16 µM (inactive)
GI50 (HCT-116): > 100 µM (inactive)
GI50 (UACC-62): > 100 µM (inactive)
GI50 (MCF7): > 100 µM (inactive)
GI50 (U-251): > 100 µM (inactive)
GI50 (SN12C): > 100 µM (inactive)
GI50 (PC-3): > 100 µM (inactive)
GI50 (Malme-3M): > 100 µM (inactive)
GI50 (M14): > 100 µM (inactive)
GI50 (MDA-N): > 100 µM (inactive)
GI50 (NCI/ADR-RES): > 100 µM (inactive)
GI50 (CAKI-1): > 100 µM (inactive)
GI50 (SK-MEL-5): > 100 µM (inactive)
GI50 (SK-MEL-28): > 100 µM (inactive)
GI50 (NCI-H522): > 100 µM (inactive)
GI50 (ACHN): > 100 µM (inactive)
GI50 (UACC-257): > 100 µM (inactive)
GI50 (SK-OV-3): > 100 µM (inactive)
GI50 (NCI-H23): > 100 µM (inactive)
GI50 (K562): 0.061 µM (active)
GI50 (SF-268): > 100 µM (inactive)
GI50 (COLO 205): > 100 µM (inactive)
GI50 (BT-549): > 100 µM (inactive)
GI50 (786-0): > 100 µM (inactive)
GI50 (A549): > 100 µM (inactive)
GI50 (SNB-75): > 100 µM (inactive)
GI50 (RPMI-8226): > 100 µM (inactive)
GI50 (TK-10): > 100 µM (inactive)
GI50 (UO-31): > 100 µM (inactive)
GI50 (T47D): > 100 µM (inactive)

O=C(O)CCCCC1CCSS1 (stereo not drawn) [LIPOIC ACID, ALPHA]
GI50 (SNB-19): > 100 µM (inactive)
GI50 (MOLT-4): > 100 µM (inactive)
GI50 (KM12): > 100 µM (inactive)
GI50 (HCC 2998): 72.6 µM (inactive)
GI50 (MDA-MB-435): > 100 µM (inactive)
GI50 (HOP-92): 30 µM (inactive)
GI50 (EKVX): > 100 µM (inactive)
GI50 (NCI-H226): > 100 µM (inactive)
GI50 (LOX IMVI): > 100 µM (inactive)
GI50 (SK-MEL-2): > 100 µM (inactive)
GI50 (HCT-15): > 100 µM
GI50 (OVCAR-4): > 100 µM (inactive)
GI50 (SF-295): > 100 µM (inactive)
GI50 (NCI-H460): > 100 µM (inactive)
GI50 (MDA-MB-231): > 100 µM (inactive)
GI50 (HOP-62): > 100 µM (inactive)
GI50 (OVCAR-3): > 100 µM (inactive)
GI50 (HT-29): > 100 µM (inactive)
GI50 (DU-145): > 100 µM (inactive)
GI50 (Hs-578T): > 100 µM (inactive)
GI50 (IGROV-1): > 100 µM (inactive)
GI50 (OVCAR-5): > 100 µM (inactive)
GI50 (HCT-116): > 100 µM (inactive)
GI50 (MCF7): > 100 µM (inactive)
GI50 (U-251): > 100 µM (inactive)
GI50 (SN12C): > 10 µM (inactive)
GI50 (HL-60): 34.3 µM (inactive)
GI50 (PC-3): > 100 µM (inactive)
GI50 (SF-539): > 100 µM (inactive)
GI50 (Malme-3M): 43.1 µM (inactive)
GI50 (M14): 77.1 µM (inactive)
GI50 (MDA-N): > 100 µM (inactive)
GI50 (NCI/ADR-RES): > 100 µM (inactive)
GI50 (CAKI-1): > 100 µM (inactive)
GI50 (SK-MEL-5): > 100 µM (inactive)
GI50 (SK-MEL-28): > 100 µM (inactive)
GI50 (NCI-H522): > 100 µM (inactive)
GI50 (OVCAR-8): > 100 µM (inactive)
GI50 (ACHN): > 100 µM (inactive)
GI50 (UACC-257): > 100 µM (inactive)
GI50 (NCI-H23): > 100 µM (inactive)
GI50 (K562): > 100 µM (inactive)
GI50 (CCRF-CEM): > 100 µM (inactive)
GI50 (SF-268): > 100 µM (inactive)
GI50 (COLO 205): > 100 µM (inactive)
GI50 (786-0): > 100 µM (inactive)
GI50 (A549): > 100 µM (inactive)
GI50 (SW-620): > 100 µM (inactive)
GI50 (SR): > 100 µM (inactive)
GI50 (SNB-75): 93.8 µM (inactive)
GI50 (RPMI-8226): > 100 µM (inactive)
GI50 (TK-10): > 100 µM (inactive)
GI50 (UO-31): > 100 µM (inactive)
GI50 (T47D): > 100 µM (inactive)
